According to patent US12728109B2, “Method of increasing the population of Dialister spp. in the gut microbiome” (DSM IP ASSETS B.V., priority 2020, dated 2026):

How the values were obtained:
Dialister [1] = test: In vitro fermentation study 2: intestinal batch fermentation with fecal suspension, 16S rRNA Illumina sequencing and flow cytometry; assay type: cell-based, Dialister spp.; conditions: fermentation supernatant at 24 h, donor C, FIG. 1B
Experimental: (§1) At the start of this intestinal batch fermentation incubation, all test ingredients were added from stock solutions to the modified nutritional medium, containing (g/l): 2.5 K2HPO4, 10.9 KH2PO4, 2 NaHCO3, 2 yeast extract, 2 peptone, 1 mucin, 0.5 cystein, 2 Tween 80, 2 glucose, 2 starch, 2 cellobiose, 0.1 NaCl, 0.01 MgSO4·7H2O, 0.01 CaCl2·6H2O, 0.05 hemin, 0.5 bile salts.
The following compounds were added from stock solutions prepared in water: • Beta-carotene, • Vitamin B3, • Vitamin B5, • Vitamin B7, • Fructooligosaccharides (positive control)
(§2) As a source of the microbial community, freshly prepared fecal suspension from a donor was added to the reactors. […] All tests, except the blanks, were performed in single repetition. Incubation conditions were 48 h at 37° C., under shaking (90 rpm) and anaerobic conditions.
Microbial composition: Illumina sequencing was performed at the start and after 24 h of incubation. The technique targets the 16S rRNA gene that consists of variable and conserved regions, spread over the gene. Due to their key role in protein expression, the conserved regions are characterized by very low evolutionary rates.
The methodology applied involves primers that span 2 hypervariable regions (V3-V4) of the 16S rRNA gene. Using a pair-end sequencing approach, sequencing of 2×250 bp results in 424 bp amplicons. Such fragments are taxonomically more informative as compared to smaller fragments. Samples that were analyzed with Illumina sequencing were also analyzed with flow cytometry to determine the number of total bacterial cells, thus allowing to convert the proportional values obtained with Illumina into absolute quantities. Samples were analyzed on a BDFacs verse. The samples were run using the high flow rate. Bacterial cells were separated from medium debris and signal noise by applying a threshold level of 200 on the SYTO channel. Proper parent and daughter gates were set to determine all populations.

Dialister [2] = test: In vitro fermentation study 1: intestinal batch fermentation with fecal suspension, shotgun metagenome sequencing; assay type: cell-based, Dialister spp.; conditions: fermentation supernatant at 24 hours; all tested concentrations (0.2x, 1x, 5x); FIG. 1A
Experimental: as §1, with “cysteine,” for “cystein,”
The following compounds were added from stock solutions prepared in water for vitamin B2 and B9, and in ethanol for vitamin K1, DHA and EPA:
as §2, with “Each compound was tested in three different concentrations. As” for “As”
Microbial composition: Total DNA was extracted from all fermentation samples collected throughout the study using the QIAamp DNA stool minikit (Qiagen, Crawley, United Kingdom) according to the manufacturer's instructions, apart from addition of a bead-beating step and increasing the lysis temperature to 95° C. as described previously. After DNA isolation, DNA was quantified using the Qubit High Sensitivity DNA assay (Thermo Fisher). Whole metagenome libraries were then prepared using the Illumina Nextera XT kit (Illumina) in accordance with the manufacturer's instructions, with the following modifications: Firstly, tagmentation time was increased to 7 min and secondly, following incorporation of indices and Ampure purification of the products, the samples were each individually sized by running on an Agilent High Sensitivity Chip (Agilent) and quantified using the Qubit High Sensitivity DNA assay (Thermo Fisher) in accordance with Teagasc Sequencing Platform SOPs. […] Delivered raw FASTQ sequence files were quality checked as follows: poor quality and duplicate read removal, as well as trimming was implemented using a combination of SAM and Picard tools. Taxonomy was assigned to the reads using the Metaphlan2 software.

fecal Dialister = test: Clinical study: randomized, double-blind, placebo-controlled study of colon-targeted vitamins, fecal microbial composition; assay type: in vivo; conditions: human, colon-release capsule once daily for four weeks, fecal samples; FIG. 1C
Description: Twelve participants were allocated to each of the six vitamin groups, and 24 participants allocated to the placebo group. All 96 participants completed the intervention. To be considered eligible for enrollment into the study, participants have to be able to give written informed consent; be aged between 20 and 50 years of age; have a BMI of between 18.5-30 Kg/m2; have a stable body weight (<5% change) over the past 3-months; be in generally good health, as determined by the investigator; have not consumed dietary supplements, prebiotic, probiotic, dietary or fiber-rich supplements within 4 weeks prior to baseline visit and be willing to avoid these supplements until the end of the study; be willing to avoid liver consumption for the duration for the study, be willing to maintain their current level of physical activity for the duration of the study; and be willing to consume the IP daily for the duration of the study. […] Before the randomization visit, participants food frequency questionnaires were analyzed to ensure their typical fiber intake is <30 g fiber/day. […] At the baseline visit (Visit 2), participants retuned a fecal samples collected in the previous 48 hours and eligibility was assessed. […] Participants returned their IP and compliance was assessed. […]

Compound | Dialister relative abundances compared to control (Dialister [1]; all tested concentrations) | Dialister relative abundances compared to control (Dialister [2]) | other results
CC1=C(/C=C/C(C)=C/C=C/C(C)=C/C=C/C=C(C)/C=C/C=C(C)/C=C/C2=C(C)CCCC2(C)C)C(C)(C)CCC1 [beta-carotene, Beta-carotene] | increase | – | –
Cc1cc2nc3c(=O)[nH]c(=O)nc-3n(C[C@H](O)[C@H](O)[C@H](O)CO)c2cc1C [vitamin B2, Riboflavin] | – | substantial increase | –
NC(=O)c1cccnc1 [vitamin B3, Niacinamide] | no distinct increase | – | –
CC(C)(CO)[C@@H](O)C(=O)NCCC(=O)O [vitamin B5, Pantothenic acid] | – | – | Dialister relative abundances compared to control (Dialister [1]; at 0.2× and 5×): increase
O=C(O)CCCC[C@@H]1SC[C@@H]2NC(=O)N[C@@H]21 [vitamin B7, Biotin] | no distinct increase | – | –
Nc1nc2ncc(CNc3ccc(C(=O)N[C@@H](CCC(=O)O)C(=O)O)cc3)nc2c(=O)[nH]1 [vitamin B9, Folic acid] | – | no distinct increase | –
C=C1CC[C@H](O)C/C1=C/C=C1\CCC[C@]2(C)[C@@H]([C@H](C)CCCC(C)C)CC[C@@H]12 [vitamin D3, cholecalciferol] | – | – | Dialister relative abundance compared to placebo (fecal Dialister): increase
CC1=C(C/C=C(\C)CCC[C@H](C)CCC[C@H](C)CCCC(C)C)C(=O)c2ccccc2C1=O [vitamin K1] | – | substantial increase | –
vitamin A | – | – | Dialister relative abundance compared to placebo (fecal Dialister): increase
